According to US9556165B2 (priority 2012, dated 2017):
Converted amounts (≈) assume the structure as drawn. Read-outs that look alike come from different tables or passages of the source.

Assays:
Type in all cases: cell-based
E. coli ATCC25922 = experiment: MIC determination, broth microdilution (CLSI); settings: Escherichia coli, ATCC25922, strain 1
K. pneumoniae 60 = experiment: MIC determination, broth microdilution (CLSI); settings: Klebsiella pneumoniae, 60, strain 2
E. cloacae 34654 = experiment: MIC determination, broth microdilution (CLSI); settings: Enterobacter cloacae, 34654, strain 3
C. freundii K21/3034 = experiment: MIC determination, broth microdilution (CLSI); settings: Citrobacter freundii, K21/3034, strain 4
M. morganii 126/3048 = experiment: MIC determination, broth microdilution (CLSI); settings: Morganella morganii, 126/3048, strain 5
P. aeruginosa PAO1 = experiment: MIC determination, broth microdilution (CLSI); settings: Pseudomonas aeruginosa, PAO1, strain 6
[1] = system: P. aeruginosa 2297 (AmpC wt); experiment: MIC determination, broth microdilution (CLSI); settings: Pseudomonas aeruginosa, strain 7
[2] = system: P. aeruginosa 2297-con (AmpC derepressed); experiment: MIC determination, broth microdilution (CLSI); settings: Pseudomonas aeruginosa, read-out: strain 8 MIC, strain 8
A. baumannii ATCC15308 = experiment: MIC determination, broth microdilution (CLSI); settings: Acinetobacter baumannii, ATCC15308, strain 9
S. maltophilia ICB7569 = experiment: MIC determination, broth microdilution (CLSI); settings: Stenotrophomonas maltophilia, ICB7569, strain 10
S. aureus 133 = experiment: MIC determination, broth microdilution (CLSI)
H. influenzae ATCC 49247 = experiment: MIC determination, broth microdilution (CLSI); settings: Haemophilus influenzae, ATCC49247, strain 12; broth microdilution; read-out: MIC strain 12 (H. influenzae ATCC 49247)
S. pneumoniae 113 = experiment: MIC determination, broth microdilution (CLSI); settings: Streptococcus pneumoniae, 113, strain 13; broth microdilution; read-out: MIC strain 13 (S. pneumoniae 113)
B. fragilis 6688 = experiment: MIC determination, broth microdilution (CLSI); settings: Bacteroides fragilis, 6688, strain 15; broth microdilution; read-out: MIC strain 15 (B. fragilis 6688)
C. perfringens DSM756 = experiment: microbe, parasite or virus in culture; settings: Clostridium perfringens, DSM756, read-out: MIC strain 16 (C. perfringens DSM756), strain 16; broth microdilution
E. coli J62 = experiment: MIC determination, broth microdilution (CLSI); settings: Escherichia coli, J62, strain 17; broth microdilution; read-out: MIC strain 17 (E. coli J62)
E. coli J62-TEM-3 = experiment: MIC determination, broth microdilution (CLSI); settings: Escherichia coli, J62TEM3, read-out: MIC strain 18 (E. coli J62-TEM-3), strain 18; broth microdilution
Bacteria = experiment: MIC determination in combination with β-lactamase inhibitors (constant 4 μg/mL)
[3] = Staphylococcus aureus, 133, strain 11, read-out: strain 11 MIC
[4] = Staphylococcus aureus, 133, strain 14, broth microdilution, read-out: MIC strain 14 (S. aureus 133)

SMILES | MIC (E. coli ATCC25922) | MIC (K. pneumoniae 60) | MIC (E. cloacae 34654) | MIC (C. freundii K21/3034) | MIC (M. morganii 126/3048) | MIC (P. aeruginosa PAO1) | MIC [1] | MIC [2] | MIC (A. baumannii ATCC15308) | MIC (S. maltophilia ICB7569) | MIC (S. aureus 133; [3]) | MIC (H. influenzae ATCC 49247) | MIC (S. pneumoniae 113) | MIC (B. fragilis 6688) | MIC (C. perfringens DSM756) | MIC (E. coli J62) | MIC (E. coli J62-TEM-3) | MIC strain 19 (E. coli J62-TEM-3 + 4 μg/mL clavulanic acid) (Bacteria) | MIC strain 20 (E. coli J62-TEM-3 + 4 μg/mL sulbactam) (Bacteria) | MIC strain 21 (E. coli J62-TEM-3 + 4 μg/mL tazobactam) (Bacteria) | further results
CC1(C)[C@H](NC(=O)/C(=N\OCCOc2ccc(C(=N)NC(CN)CN)cc2)c2csc(N)n2)C(=O)N1OS(=O)(=O)O [Example 84, (2Z)-2-(2-Amino-1,3-thiazol-4-yl)-2-[(2-{4-[N-(1,3-diaminopropan-2-yl)carbamimidoyl]phenoxy}ethoxy)imino]-N-[(3S)-2,2-dimethyl-4-oxo-1-(sulfooxy)azetidin-3-yl]ethanamide] | ≤ 0.063 µg/mL | 0.125 µg/mL (≈ 0.204 µM) | 0.125 µg/mL (≈ 0.204 µM) | ≤ 0.063 µg/mL | 0.25 µg/mL (≈ 0.407 µM) | 1 µg/mL (≈ 1.63 µM) | 2 µg/mL (≈ 3.26 µM) | 2 µg/mL (≈ 3.26 µM) | 1 µg/mL (≈ 1.63 µM) | 32 µg/mL (≈ 52.1 µM) | ≤ 0.063 µg/mL | ≤ 0.063 µg/mL | ≤ 0.063 µg/mL | 4 µg/mL (≈ 6.52 µM) | 2 µg/mL (≈ 3.26 µM) | 0.125 µg/mL (≈ 0.204 µM) | 4 µg/mL (≈ 6.52 µM) | ≦0.063 mg/L | 0.125 mg/L | 0.125 mg/L | MIC (S. aureus 133; [4]): 2 µg/mL (≈ 3.26 µM)
CC1(C)[C@H](NC(=O)/C(=N\OCCOc2ccc(C(=N)N[C@H](CN)CO)cc2)c2csc(N)n2)C(=O)N1OS(=O)(=O)O [Example 85, (2Z)-2-{[2-(4-{N-[(2R)-1-Amino-3-hydroxypropan-2-yl]carbamimidoyl}phenoxy)ethoxy]imino}-2-(2-amino-1,3-thiazol-4-yl)-N-[(3S)-2,2-dimethyl-4-oxo-1-(sulfooxy)azetidin-3-yl]ethanamide] | 0.25 µg/mL (≈ 0.407 µM) | 0.5 µg/mL (≈ 0.813 µM) | 0.5 µg/mL (≈ 0.813 µM) | 0.25 µg/mL (≈ 0.407 µM) | 0.25 µg/mL (≈ 0.407 µM) | 4 µg/mL (≈ 6.51 µM) | 8 µg/mL (≈ 13 µM) | 8 µg/mL (≈ 13 µM) | 2 µg/mL (≈ 3.25 µM) | 32 µg/mL (≈ 52.1 µM) | ≤ 0.063 µg/mL | ≤ 0.063 µg/mL | ≤ 0.063 µg/mL | 4 µg/mL (≈ 6.51 µM) | 4 µg/mL (≈ 6.51 µM) | 0.5 µg/mL (≈ 0.813 µM) | 8 µg/mL (≈ 13 µM) | 0.25 mg/L | 0.25 mg/L | 0.5 mg/L | MIC (S. aureus 133; [4]): 8 µg/mL (≈ 13 µM)
CC1(C)[C@H](NC(=O)/C(=N\OCCOc2ccc(C3=NCC(N)CN3)cc2)c2csc(N)n2)C(=O)N1OS(=O)(=O)O (stereo partly drawn) [Example 86, (2Z)-2-({2-[4-(5-Amino-1,4,5,6-tetrahydropyrimidin-2-yl)phenoxy]ethoxy}imino)-2-(2-amino-1,3-thiazol-4-yl)-N-[(3S)-2,2-dimethyl-4-oxo-1-(sulfooxy)azetidin-3-yl]ethanamide] | 0.25 µg/mL (≈ 0.419 µM) | 0.5 µg/mL (≈ 0.838 µM) | 0.5 µg/mL (≈ 0.838 µM) | 0.25 µg/mL (≈ 0.419 µM) | 0.5 µg/mL (≈ 0.838 µM) | 4 µg/mL (≈ 6.7 µM) | 8 µg/mL (≈ 13.4 µM) | 8 µg/mL (≈ 13.4 µM) | 2 µg/mL (≈ 3.35 µM) | 32 µg/mL (≈ 53.6 µM) | ≤ 0.063 µg/mL | ≤ 0.063 µg/mL | ≤ 0.063 µg/mL | 4 µg/mL (≈ 6.7 µM) | 2 µg/mL (≈ 3.35 µM) | 0.25 µg/mL (≈ 0.419 µM) | 16 µg/mL (≈ 26.8 µM) | 0.25 mg/L | 0.25 mg/L | 0.5 mg/L | MIC (S. aureus 133; [4]): 4 µg/mL (≈ 6.7 µM)
CC1(C)[C@H](NC(=O)/C(=N\O[C@@H](COc2ccc(C(=N)N[C@@H]3CCCNC3)cc2)C(=O)O)c2csc(N)n2)C(=O)N1OS(=O)(=O)O [Example 88, (2S)-2-({[(1Z)-1-(2-Amino-1,3-thiazol-4-yl)-2-{[(3S)-2,2-dimethyl-4-oxo-1-(sulfooxy)azetidin-3-yl]amino}-2-oxoethylidene]amino}oxy)-3-(4-{N-[(3R)-piperidin-3-yl]carbamimidoyl}phenoxy)propanoic acid] | ≤ 0.063 µg/mL | 0.125 µg/mL (≈ 0.187 µM) | ≤ 0.063 µg/mL | ≤ 0.063 µg/mL | ≤ 0.063 µg/mL | 1 µg/mL (≈ 1.5 µM) | 1 µg/mL (≈ 1.5 µM) | 1 µg/mL (≈ 1.5 µM) | 2 µg/mL (≈ 2.99 µM) | 4 µg/mL (≈ 5.98 µM) |  | ≤ 0.063 µg/mL | 0.5 µg/mL (≈ 0.748 µM) | 8 µg/mL (≈ 12 µM) | 0.5 µg/mL (≈ 0.748 µM) | 0.125 µg/mL (≈ 0.187 µM) | 2 µg/mL (≈ 2.99 µM) | ≦0.063 mg/L | ≦0.063 mg/L | ≦0.063 mg/L | MIC (S. aureus 133; [4]): 32 µg/mL (≈ 47.9 µM)
CC1(C)[C@H](NC(=O)/C(=N\OCCOc2ccc(C3=NCC(CN)N3)cc2)c2csc(N)n2)C(=O)N1OS(=O)(=O)O (stereo partly drawn) [Example 91, (2Z)-2-[(2-{4-[5-(Aminomethyl)-4,5-dihydro-1H-imidazol-2-yl]phenoxy}ethoxy)imino]-2-(2-amino-1,3-thiazol-4-yl)-N-[(3S)-2,2-dimethyl-4-oxo-1-(sulfooxy)azetidin-3-yl]ethanamide] | 0.125 µg/mL (≈ 0.21 µM) | 0.125 µg/mL (≈ 0.21 µM) | 0.25 µg/mL (≈ 0.419 µM) | 0.125 µg/mL (≈ 0.21 µM) | 0.25 µg/mL (≈ 0.419 µM) | 2 µg/mL (≈ 3.35 µM) | 4 µg/mL (≈ 6.7 µM) | 2 µg/mL (≈ 3.35 µM) | 1 µg/mL (≈ 1.68 µM) | 16 µg/mL (≈ 26.8 µM) | ≤ 0.063 µg/mL | ≤ 0.063 µg/mL | ≤ 0.063 µg/mL | 4 µg/mL (≈ 6.7 µM) | 2 µg/mL (≈ 3.35 µM) | 0.125 µg/mL (≈ 0.21 µM) | 4 µg/mL (≈ 6.7 µM) | 0.125 mg/L | 0.125 mg/L | 0.125 mg/L | MIC (S. aureus 133; [4]): 2 µg/mL (≈ 3.35 µM)
CC1(C)[C@H](NC(=O)/C(=N\OCCOc2ccc(C(=N)NC3CNNC3)cc2)c2csc(N)n2)C(=O)N1OS(=O)(=O)O [Example 92] | 0.5 µg/mL (≈ 0.817 µM) | 0.5 µg/mL (≈ 0.817 µM) | 1 µg/mL (≈ 1.63 µM) | 0.5 µg/mL (≈ 0.817 µM) | 0.5 µg/mL (≈ 0.817 µM) | 8 µg/mL (≈ 13.1 µM) | 8 µg/mL (≈ 13.1 µM) | 8 µg/mL (≈ 13.1 µM) | 4 µg/mL (≈ 6.54 µM) | 32 µg/mL (≈ 52.3 µM) | ≤ 0.063 µg/mL | 0.125 µg/mL (≈ 0.204 µM) | ≤ 0.063 µg/mL | 8 µg/mL (≈ 13.1 µM) | 2 µg/mL (≈ 3.27 µM) | 1 µg/mL (≈ 1.63 µM) | 32 µg/mL (≈ 52.3 µM) | 0.5 mg/L | 0.5 mg/L | 0.5 mg/L | MIC (S. aureus 133; [4]): 8 µg/mL (≈ 13.1 µM)
CC(C)(N)CNC(=N)c1ccc(OC[C@H](O/N=C(\C(=O)N[C@@H]2C(=O)N(OS(=O)(=O)O)C2(C)C)c2csc(N)n2)C(=O)O)cc1 [Example 94, (2S)-3-{4-[N-(2-Amino-2-methylpropyl)carbamimidoyl]phenoxy}-2-({[(1Z)-1-(2-amino-1,3-thiazol-4-yl)-2-{[(3S)-2,2-dimethyl-4-oxo-1-(sulfooxy)azetidin-3-yl]amino}-2-oxoethylidene]amino}oxy)propanoic acid] | 0.125 µg/mL (≈ 0.19 µM) | 0.125 µg/mL (≈ 0.19 µM) | 0.125 µg/mL (≈ 0.19 µM) | 0.125 µg/mL (≈ 0.19 µM) | 0.125 µg/mL (≈ 0.19 µM) | 2 µg/mL (≈ 3.05 µM) | 2 µg/mL (≈ 3.05 µM) | 2 µg/mL (≈ 3.05 µM) | 2 µg/mL (≈ 3.05 µM) | 4 µg/mL (≈ 6.09 µM) | ≤ 0.063 µg/mL | ≤ 0.063 µg/mL | 0.5 µg/mL (≈ 0.761 µM) | 8 µg/mL (≈ 12.2 µM) | 0.5 µg/mL (≈ 0.761 µM) | 0.25 µg/mL (≈ 0.381 µM) | 8 µg/mL (≈ 12.2 µM) | 0.125 mg/L | ≦0.063 mg/L | 0.125 mg/L | MIC (S. aureus 133; [4]): 32 µg/mL (≈ 48.7 µM)
CNCCNC(=N)c1ccc(OC[C@H](O/N=C(\C(=O)N[C@@H]2C(=O)N(OS(=O)(=O)O)C2(C)C)c2csc(N)n2)C(=O)O)cc1 [Example 95, (2S)-2-({[(1Z)-1-(2-Amino-1,3-thiazol-4-yl)-2-{[(3S)-2,2-dimethyl-4-oxo-1-(sulfooxy)azetidin-3-yl]amino}-2-oxoethylidene]amino}oxy)-3-(4-{N-[2-(methylamino)ethyl]carbamimidoyl}phenoxy)propanoic acid] | 0.125 µg/mL (≈ 0.195 µM) | 0.125 µg/mL (≈ 0.195 µM) | 0.125 µg/mL (≈ 0.195 µM) | 0.125 µg/mL (≈ 0.195 µM) | ≤ 0.063 µg/mL | 1 µg/mL (≈ 1.56 µM) | 2 µg/mL (≈ 3.11 µM) | 2 µg/mL (≈ 3.11 µM) | 2 µg/mL (≈ 3.11 µM) | 4 µg/mL (≈ 6.22 µM) | ≤ 0.063 µg/mL | ≤ 0.063 µg/mL | 0.5 µg/mL (≈ 0.778 µM) | 8 µg/mL (≈ 12.4 µM) | 2 µg/mL (≈ 3.11 µM) | 0.125 µg/mL (≈ 0.195 µM) | 4 µg/mL (≈ 6.22 µM) | 0.125 mg/L | ≦0.063 mg/L | 0.125 mg/L | 
